Drawing on patent US20060257543A1, “Molecules comprising linked organic moieties as flavor modifiers for comestible compositions” (priority 2005, published 2006), this text covers EC50 for 47 compounds.

The first test addresses T1, hT1R2/hT1R3 sweet receptor expressed in an HEK293 cell line (Homo sapiens, UniProt Q7RTX0+Q8TE23).
T1 construct: expressed in transfected cells; host or cells: HEK293 derivative, clone S-9
T1 sequence (Q8TE23 20-839): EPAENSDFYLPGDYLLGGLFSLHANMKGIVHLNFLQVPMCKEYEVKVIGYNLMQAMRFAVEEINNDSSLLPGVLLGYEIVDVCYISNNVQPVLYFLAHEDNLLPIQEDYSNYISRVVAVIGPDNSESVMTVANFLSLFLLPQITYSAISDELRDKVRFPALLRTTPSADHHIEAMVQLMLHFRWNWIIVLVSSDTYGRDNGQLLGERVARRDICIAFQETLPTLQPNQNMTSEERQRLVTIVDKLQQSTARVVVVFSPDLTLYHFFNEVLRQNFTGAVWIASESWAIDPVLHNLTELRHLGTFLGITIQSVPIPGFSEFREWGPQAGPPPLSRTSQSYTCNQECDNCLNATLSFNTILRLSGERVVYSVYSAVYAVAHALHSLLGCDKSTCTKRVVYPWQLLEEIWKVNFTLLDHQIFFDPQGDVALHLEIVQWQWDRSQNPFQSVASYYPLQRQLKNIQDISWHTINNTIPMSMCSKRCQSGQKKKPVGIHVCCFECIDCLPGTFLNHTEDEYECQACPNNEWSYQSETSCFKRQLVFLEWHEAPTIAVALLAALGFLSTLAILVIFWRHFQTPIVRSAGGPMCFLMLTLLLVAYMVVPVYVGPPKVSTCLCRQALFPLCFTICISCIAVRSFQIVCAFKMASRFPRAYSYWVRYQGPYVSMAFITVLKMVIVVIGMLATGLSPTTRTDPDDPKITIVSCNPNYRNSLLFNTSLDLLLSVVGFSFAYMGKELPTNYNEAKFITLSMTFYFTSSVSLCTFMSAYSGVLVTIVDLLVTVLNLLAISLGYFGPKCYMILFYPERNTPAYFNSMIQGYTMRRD
T1 sequence (Q7RTX0 21-852): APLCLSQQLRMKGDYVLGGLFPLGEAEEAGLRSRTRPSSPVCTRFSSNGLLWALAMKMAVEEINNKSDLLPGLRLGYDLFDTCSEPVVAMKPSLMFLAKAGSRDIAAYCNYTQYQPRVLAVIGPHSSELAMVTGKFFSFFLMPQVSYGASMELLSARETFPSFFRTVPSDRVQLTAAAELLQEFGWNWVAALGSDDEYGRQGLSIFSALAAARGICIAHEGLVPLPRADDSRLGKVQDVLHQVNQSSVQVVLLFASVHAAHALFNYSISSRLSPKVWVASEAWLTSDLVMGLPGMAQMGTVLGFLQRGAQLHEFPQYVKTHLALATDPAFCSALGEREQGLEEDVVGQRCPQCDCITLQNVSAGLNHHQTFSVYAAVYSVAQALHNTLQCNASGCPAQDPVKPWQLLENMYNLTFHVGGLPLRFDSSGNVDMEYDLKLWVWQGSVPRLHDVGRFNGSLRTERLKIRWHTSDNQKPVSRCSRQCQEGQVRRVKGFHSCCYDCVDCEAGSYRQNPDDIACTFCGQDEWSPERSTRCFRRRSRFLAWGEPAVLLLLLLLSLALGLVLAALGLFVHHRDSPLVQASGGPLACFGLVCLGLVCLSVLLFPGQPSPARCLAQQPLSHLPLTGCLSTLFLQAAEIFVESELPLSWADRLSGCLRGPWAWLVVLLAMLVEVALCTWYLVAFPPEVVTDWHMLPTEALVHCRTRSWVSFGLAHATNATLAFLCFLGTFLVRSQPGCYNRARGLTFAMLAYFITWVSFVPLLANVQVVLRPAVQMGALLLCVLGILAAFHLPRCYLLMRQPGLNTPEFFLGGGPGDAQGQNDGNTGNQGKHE
Description: In vitro hT1R2/hT1R3 sweet taste receptor activation assay (FLIPR, dose response). The format is cell-based. The conditions noted are these: read-out: EC50 for activation of a hT1R2/hT1R3 sweet receptor. The text has this: An HEK293 cell line derivative (see Chandrashekar, J., Mueller, K. L., Hoon, M. A., Adler, E., Feng, L., Guo, W., Zuker, C. S., Ryba, N. J.,. Cel,l 2000, 100, 703-711.) that stably expresses Gα15 and hT1R2/hT1R3 (see Li, X., Staszewski, L., Xu, H., Durick, K., Zoller, M., Adler, E. Proc Natl Acad Sci USA 2002, 99, 4692-4696, and PCT Publication No. WO 03/001876) was used to identify compounds with sweet taste enhancing properties. These references are hereby incorporated herein by reference for their methods of preparing and maintaing the cell lines discussed below, and for their methods for screeing compounds that inhibit the biological receptors.
Compounds covered in this document were initially selected based on their activity on the hT1R2/hT1R3—HEK293-Gα15 cell line (Li, et al. vide supra). Activity was determined using an automated fluorometric imaging assay on a FLIPR instrument (Fluorometric Intensity Plate Reader, Molecular Devices, Sunnyvale, Calif.) (designated FLIPR assay). Cells from one clone (designated S-9 cells) were seeded into 384-well plates (at approximately 50,000 cells per well) in a medium containing DMEM Low Glucose (Invitrogen, Carlsbad, Calif.), 10% dialyzed fetal bovine serum (Invitrogen, Carlsbad, Calif.), 100 Units/ml Penicillin G, and 100 μg/ml Streptomycin (Invitrogen, Carlsbad, Calif.) (Li, et al. vide supra) see also World Patent No. WO 03/001876 A2). S-9 cells were grown for 24 hours at 37° C. S-9 cells were then loaded with the calcium dye Fluo-3AM (Molecular Probes, Eugene, Oreg.), 4 μM in a phosphate buffered saline (D-PBS) (Invitrogen, Carlsbad, Calif.), for 1 hour at room temperature. After replacement with 25 μl D-PBS, stimulation was performed in the FLIPR instrument and at room temperature by the addition of 25 μl D-PBS supplemented with different stimuli at concentrations corresponding to twice the desired final level. Receptor activity was quantified by determining the maximal fluorescence increases (using a 480 nm excitation and 535 nm emission) after normalization to basal fluorescence intensity measured before stimulation.
For dose-responses analysis, stimuli were presented in duplicates at 10 different concentrations ranging from 60 nM to 30 μM. Activities were normalized to the response obtained with 400 mM D-fructose, a concentration that elicits maximum receptor response. EC50s were determined using a non-linear regression algorithm (using a Senomyx, Inc. software), where the Hill slope, bottom asymptotes and top asymptotes were allow to vary. Identical results were obtained when analyzing the dose-response data using commercially available software for non-linear regression analysis such as GraphPad PRISM (San Diego, Calif.).
For `CC(C)Oc1ccc(NC(=S)NCc2cccs2)cc1` [Example 5, 1-(4-Isopropoxyphenyl)-3-(thiophen-2-ylmethyl)thiourea], the EC50 turned out to be 120 nM. The same measure, in the same setting: then `COc1ccc(CNc2ccccc2F)cc1O` [Example 16, 5-((2-fluorophenylamino)methyl)-2-methoxyphenol], with 2410 nM.

In the case of `COc1ccc(CNc2ccc(F)cc2F)cc1O` [Example 14, 5-((2,4-difluorophenylamino)methyl)-2-methoxyphenol], the EC50 is 2100 nM. The same measure, in the same setting: then `CCOc1ccc(NC(=S)NCc2ccco2)cc1` [Example 7, 1-(4-ethoxyphenyl)-3-(furan-2-ylmethyl)thiourea], with 1700 nM; and `CC(C)Oc1ccc(NC(=S)NCc2ccc[nH]2)cc1` [Example 19, 1-((1H-pyrrol-2-yl)methyl)-3-(4-isopropoxyphenyl)thiourea], with 25 nM; and `CC(C)Oc1ccc(NC(=S)NCc2ccccc2)cc1` [Example 11], with 1000 nM. On the same count and under the same terms, then `CC(C)Oc1ccc(NC(=S)NCc2ccco2)cc1` [Example 6, 1-(4-Isopropoxyphenyl)-3-(furan-2-ylmethyl)thiourea], with 550 nM; and `CCOc1ccc(NC(=S)NCc2ccoc2)cc1` [Example 8, 1-(4-ethoxyphenyl)-3-(furan-3-ylmethyl)thiourea], with 230 nM; and `COc1ccc(CNc2ccc(F)cc2C)cc1O` [Example 13, 5-((4-fluoro-2-methylphenylamino)methyl)-2-methoxyphenol], with 2290 nM. Still for that read-out and setting: then `CCC(C)Oc1ccc(NC(=S)NCc2ccco2)cc1` (centres unmarked) [Example 9, 1-(4-sec-Butoxy-phenyl)-3-furan-2-ylmethyl-thiourea], with 5300 nM.

Staying with this test, now noted: read-out: Sweet EC50.
As for `CC(=O)c1ccc(NC(=S)NCc2ccoc2)cc1` [Example B37], the EC50 came out at 7450 nM. The same measure, in the same setting: next, `CC(C)(C)c1ccc(NC(=S)NCc2ccc[nH]2)cc1` [Example B27]: 1710 nM.

As to `C#Cc1ccc(NC(=S)NCc2cccs2)cc1` [Example B36], the EC50 was found to be 7000 nM. Regarding `CCOc1ccc(NC(=S)NCc2coc(C)c2)cc1` [Example B4], the EC50 stood at 1440 nM. For `CCOc1ccc(NC(=S)NCc2sccc2C)cc1` [Example B31], the EC50 is 4160 nM. In the case of `CCOc1ccc(NC(=S)NCc2ccc[nH]2)cc1` [Example B10], the EC50 is 160 nM.

With `CCOc1ccc(NC(=S)NCc2ccc(C)o2)cc1` [Example B28], the EC50 is 1910 nM.

`C=Cc1ccc(NC(=S)NCc2ccc[nH]2)cc1` [Example B24]: the EC50 worked out at 870 nM.

For the compound `CC(C)Nc1ccc(NC(=S)NCc2ccc[nH]2)cc1` [Example B21], the EC50 was 630 nM. Still for that read-out and setting: then `CC(C)Oc1ccc(NC(=S)NCc2ccno2)cc1` [Example B30], with 3860 nM; and `COc1ccc(NC(=S)NCc2ccc[nH]2)c(C)c1` [Example B32], with 5190 nM. The same measure, in the same setting: then `S=C(NCc1ccoc1)Nc1ccc2c(c1)OCO2` [Example B40], with 11600 nM.

With `S=C(NCc1ccc[nH]1)Nc1ccc(SC2CC2)cc1` [Example B18], the EC50 came out at 410 nM. As to `OCCSc1ccc(NC(=S)NCc2ccc[nH]2)cc1` [Example B39], the EC50 stood at 8500 nM.

For the compound `CCSc1ccc(NC(=S)NCc2ccc[nH]2)cc1` [Example B16], the EC50 turned out to be 210 nM. As for `CC(C)Oc1ccc(NC(=S)NCc2ccc[nH]2)cn1` [Example B12], the EC50 was 340 nM. On to `CSc1ccc(NC(=S)NCc2ccc[nH]2)cc1` [Example B19], for which the EC50 came to 430 nM. On the same count and under the same terms, next, `S=C(NCc1ccc[nH]1)Nc1ccc2c(c1)OCCO2` [Example B17]: 310 nM. The same measure, in the same setting: next, `COc1ccc(CNC(=S)NC(=O)c2ccccc2Cl)cc1` [Example B9]: 4900 nM; `COC(=O)COc1ccc(S(=O)(=O)Nc2ccc3c(c2)OCCO3)cc1` [Example B48]: 7970 nM.

Take `CN(C)c1ccc(NC(=S)NCc2cccs2)cc1` [Example B25]: the EC50 came out at 1500 nM. On the same count and under the same terms, next, `CCN(CC)c1ccc(NC(=S)NCc2ccoc2)cc1` [Example B8]: 4090 nM; `COc1c(S(=O)(=O)NCc2ccncc2)ccc(Cl)c1Cl` [Example B45]: 2180 nM; `FC(F)(F)c1ccc(NC(=S)NCc2ccc[nH]2)c(Cl)c1` [Example B22]: 670 nM. As for `CC(C)Oc1ccc(NC(=S)NCc2cccnc2)cc1` [Example B35], the EC50 turned out to be 6710 nM. Consider `CCCCc1ccc(NC(=S)NCc2ccc[nH]2)cc1` [Example B34], for which the EC50 worked out at 5960 nM. On to `CC(C)Oc1ccc(NC(=S)NCc2nccs2)cc1` [Example B3], for which the EC50 amounted to 1380 nM. As for `O=S(=O)(NCc1ccncc1)c1ccc(F)cc1` [Example B42], the EC50 is 6500 nM.

Take `CC(C)COc1ccc(NC(=S)NCc2ccc[nH]2)cc1` [Example B33]: the EC50 turned out to be 5560 nM. On the same count and under the same terms, next, `S=C(NCc1ccc[nH]1)Nc1ccc2c(c1)CCC2` [Example B23]: 790 nM. Same read-out and setting: next, `C=CCOc1ccc(NC(=S)NCc2ccc[nH]2)cc1` [Example B14]: 160 nM; `Cc1cc(C)c(S(=O)(=O)NCc2ccncc2)c(C)c1` [Example B43]: 760 nM; `COc1ccc(Cl)cc1S(=O)(=O)NCc1ccco1` [Example B49]: 8000 nM. The same measure, in the same setting: next, `C=COc1ccc(NC(=S)NCc2ccc[nH]2)cc1` [Example B15]: 180 nM; `CC(C)Oc1ccc(NC(=S)NCc2cccn2C)cc1` [Example B2]: 2590 nM; `CCc1ccc(NC(=S)NCc2ccoc2)cc1` [Example B6]: 1880 nM. `COC(=O)c1ccc(NC(=S)NCc2cccs2)cc1` [Example B29]: the EC50 was 2940 nM.
